Test results: patent publication US7994311B2, “Fluorescent chemosensors for metals based on dipyrrins” (priority 2006, dated 2011)

What was measured:
[1] = Fluorescence quantum yield of dipyrrins, free and with Zn^2+; settings: even with Cd^2+; Table 1, FIG. 2
Excerpt: The conjugated (2) comprises a fluorophore with the […] moiety behaving as an ionphore. Benzaldehyde was used to form (2) because the properties shown by this type of sensing molecule with an benzene ring are representative of the general behavior of the family of compounds. In spite of the low fluorescence quantum yields of benzene, substituting benzene (ΦF=0.05±0.02) with a more intrinsically luminescent unit can make a great improvement in ΦF. An examples of another aromatic entity used instead of benzene is anthracene (ΦF0.27±0.03). When a […] attached to the benzene ring, the fluorescence quantum yield (ΦF) of (2) was very low and was determined to be 0.0011 due to the photo-induced electron transfer (PET), which is the intra-molecular quenching mechanism of an enamine group and an imine group in conjugate. When Zn^2+ bound with a […] moiety, PET was hindered and fluorescence emission intensity was recovered. […] Zn^2+, the fluorescence quantum yield was determined to be 0.07. […] (2), (3) and (4). The excitation wavelengths were 432, 475, 450 nm. The emission wavelengths were 496, 612, 497 and 599 nm for (2), (3) and (4). The ratio of fluorescence quantum yield [fluorescence quantum yield of metal ion/(2), (3) or (4) complex over fluorescence quantum yield of free ligand (10 μM)] was measured in acetonitrile.

[2] = Zn^2+ binding / complex formation (qualitative)
[3] = Fluorescence response of (4) to Zn^2+ concentration; type: binding; settings: fluorescence emission
Excerpt: We believe that the steric strain in conformations that would allow the orbital alignment needed for conjugation may be detrimental to high quantum yield. 1-pyrenyldipyrrin ((4), PYDPY1), is more fluorescent and sterically less demanding than (3). […] Indeed, as a Zn^2+ sensor, (4) is unsurpassed in its effective concentration range with Zn^2+, thus providing a rarely found degree of sensitivity.
FIG. 5 is a graph of fluorescence response and Zn^2+ concentration and (4).

binding of Zn^2+ (in words) [2]	Kd [3] [µM]	SMILES	selectivity for Zn^2+ in comparison to other common metal ions [1]
found to bind Zn^2+		C1=CC(=C(c2ccccc2)c2ccc[nH]2)N=C1 [Compound (2), 5-phenyl-4,6-dipyrrin]	Excellent selectivity
	20	C1=CC(=C(c2ccc[nH]2)c2ccc3ccc4cccc5ccc2c3c45)N=C1 [(4), 1-pyrenyldipyrrin]	
